≈ marks a conversion by molar mass, not a printed value. Where a name gives a salt, the structure may show the parent alone. Read-outs that look alike come from different tables or passages of the source.
How the values were obtained:
[1] = Solubility of indacaterol maleate in water and in maleate buffer; type: physicochemical
Procedure: In Lot II, the concentration of indacaterol in Feedline A was 18% w/w and the concentration in the spray-blended bulk powder was just 4.1% w/w, as the remaining spray dried particles from Feedlines B and C contained no API.
Lot IV is formulated like Lot II except 20 mM sodium maleate (pH 5.5) was added to Feedline A. Sodium maleate was added to decrease the indacaterol solubility in water to about, 0.01 mg/ml (common ion effect). In this case, spray-blending reduced the dissolved indacaterol in the feedstock from about, 8.0% to 0.1%.
Estimated % Dissolved was calculated based on the feedstock compositions according to equation 1. The solubility of indacaterol in water is 0.2 mg/ml, and 0.01 mg/ml in 20 mM maleate buffer. The decreased solubility in maleate buffer is the result of the shift in the equilibrium towards precipitation of indacaterol maleate which occurs as a result of the addition of a common ion. The impact of spray-blending on the dissolved fraction is clearly evident by comparing Lots I and VI. In the spray-blended Lot I, the total drug loading is 1.4%, yet the dissolved fraction is just 4.9%. In contrast, for the single feedstock Lot VI, the drug content is actually higher (2%), yet the dissolved fraction is nearly 15%.

β2-adrenoceptor = β2-adrenoceptor (Homo sapiens, UniProt P07550); settings: cited from earlier work
Chain of β2-adrenoceptor (P07550 whole entry, species assumed): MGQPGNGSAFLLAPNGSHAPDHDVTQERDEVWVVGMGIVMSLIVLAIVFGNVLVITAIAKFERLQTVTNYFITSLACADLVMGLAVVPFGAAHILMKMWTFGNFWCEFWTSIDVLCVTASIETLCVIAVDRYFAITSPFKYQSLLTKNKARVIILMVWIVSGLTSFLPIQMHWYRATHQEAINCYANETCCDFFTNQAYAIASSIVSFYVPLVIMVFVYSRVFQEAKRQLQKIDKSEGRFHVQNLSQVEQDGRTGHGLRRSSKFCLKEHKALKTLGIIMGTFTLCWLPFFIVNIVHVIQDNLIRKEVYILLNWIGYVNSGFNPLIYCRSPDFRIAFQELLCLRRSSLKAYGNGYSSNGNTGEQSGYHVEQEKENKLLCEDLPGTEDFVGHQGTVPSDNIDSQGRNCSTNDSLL

Row | solubility ([1]; water, read-out: solubility in water) [mg/mL] | solubility in 20 mM maleate buffer ([1]; 20 mM sodium maleate (pH 5.5), common ion effect) [mg/mL] | solubility ([1]; 20 mM sodium maleate buffer, pH 5.5, aqueous buffer, 20 mM sodium maleate (pH 5.5), common ion effect, read-out: solubility in 20 mM maleate buffer) [mg/mL] | Structure (SMILES) | duration of action (β2-adrenoceptor) | onset of action (β2-adrenoceptor)
1 | 0.2 | – | – | CCc1cc2c(cc1CC)CC(NC[C@H](O)c1ccc(O)c3[nH]c(=O)ccc13)C2 [indacaterol maleate, (R)-5-[2-(5,6-diethyl-indan-2-ylamino)-1-hydroxyethyl]-8-hydroxy-1H-quinolin-2-one] | – | –
2 | – | 0.01 (≈ 25.5 µM) | ~0.01 (≈ 25.5 µM) | CCc1cc2c(cc1CC)CC(NC[C@H](O)c1ccc(O)c3[nH]c(=O)ccc13)C2 [indacaterol, (R)-5-[2-(5,6-diethyl-indan-2-ylamino)-1-hydroxyethyl]-8-hydroxy-1H-quinolin-2-one] | over 24 hours | about 10 minutes

— patent US20150374623A1, “DEAMORPHIZATION OF SPRAY-DRIED FORMULATIONS VIA SPRAY-BLENDING” (NOVARTIS AG, priority 2013, published 2015)
